Experimental findings from patent US20120189564A1, “COMPOSITIONS OF VITAMIN C DERIVATIVE AND PORTULACA EXTRACT” (PRESPERSE CORPORATION, priority 2011, published 2012) are described below.

For this test, the system named is B16-F10 melanoma cells. The experiment in a line: Melanin formation inhibition (without UV stress) in B16-F10 melanoma cells. It is filed as cell-based. On the procedure: Experiments were conducted to evaluate suppression of melanin synthesis using B16 melanoma cells by Portulaca Extract, ASG and Portulaca/ASG blend with and without UV stress at different levels. These experiments were performed to quantify skin whitening effects of the blend versus the individual components of the blend. Test (I)—Melanin Formation Inhibition (without UV Stress) Two sets of B16-F10 melanoma cells (ATCC 6475) were seeded at 6 well multi-plates with 1×10^5 density and cultured in Culbecco's Modified Eagle's Medium (DMEM) supplemented 10% fetal bovine serum (FBS) at 37° C. for 24 hours. The medium was exchanged with fresh DMEM media containing 10% FBS and test samples were added and cultured for 72 hours at 37° C. One set of cultured cells was washed with 2 ml of PBS (phosphate buffered saline) and cells were dissolved by 250 ul of 1N NaOH and melanin content was measured by UV absorbance at 450 nm. The other set of cells was incubated after adding 200 ul of MTT (2.5 mg/ml) at 37° C. for 4 hours. Culture medium was discarded and cells were dissolved for 10 minutes at room temperature by adding 2 ml of DMSO. After the cells were completely dissolved, UV absorbance was measured at 570 nm. […] [table]

As to `O=C1O[C@H]([C@H](O)CO)C(O)=C1O[C@H]1O[C@H](CO)[C@@H](O)[C@H](O)[C@H]1O` [ASG, 2-0-α-D-glucopyranosyl-L-ascorbic acid], the melanin formation inhibition entry (1.2% of ASG, 72 hours, FIGS. 1 and 2) is recorded as “about 20%”. Also, for the setting “B16-F10 cells, concentration series of Table 2”, the “melanin formation inhibition (result in words)” value is reported as “melanin formation inhibition in a dose dependent manner”.
